Test results from ChEMBL document CHEMBL6121008, “New series of 3-pyridyl-1,3-thiazoles: In vitro and in vivo anti-Trypanosomatidae profile, in vitro and in silico mechanism of action approach” (Eur J Med Chem, 2025).
pIC50: −log10 of the molar value. Activity calls are given as the source filed them. The calls are words filed in the database; no cut-off is given here.

Experiments:
[1] = Selectivity index, ratio of CC50 for mouse RAW264.7 cells to IC50 for antiparasitic activity against Leishmania amazonensis amastigote expressing Escherichia coli beta-galactosidase infected in mouse RAW264.7 cells; assay type: toxicity; settings: read-out: Selectivity Index
[2] = tested on: Trypanosoma cruzi; experiment: Antiparasitic activity against amastigote form of Trypanosoma cruzi Tulahuen expressing Escherichia coli beta-galactosidase infected in mouse L929 cells assessed as reduction in parasitic growth using CPRG as substrate pretreated with compound for 96 hrs followed by substrate addition and measured after 16 to 20 hrs by Spectrophotometric analysis; assay type: functional, organism-based
[3] = Cytotoxicity against mouse L929 cells assessed as inhibition of cell viability incubated for 96 hrs by MTT assay; assay type: toxicity, cell-based
[4] = tested on: Leishmania infantum; experiment: Antiparasitic activity against Leishmania infantum MHOM/MA/67/ITMAP-263 promastigote expressing Escherichia coli beta-galactosidase assessed as reduction in parasitic growth using CPRG as substrate preincubated with compound for 72 hrs followed by substrate addition and measured after 10 mins by Spectrophotometric analysis; assay type: functional, organism-based; settings: for pIC50: Leishmania infantum, MHOM/MA/67/ITMAP-263, read-out: IC50
[5] = tested on: Trypanosoma cruzi; experiment: Antiparasitic activity against trypomastigote form of Trypanosoma cruzi Tulahuen expressing Escherichia coli beta-galactosidase infected in mouse L929 cells assessed as reduction in parasitic growth using CPRG as substrate pretreated with compound for 96 hrs followed by substrate addition and measured after 16 to 20 hrs by Spectrophotometric analysis; assay type: functional, organism-based
[6] = Selectivity index, ratio of CC50 for mouse L929 cells to IC50 for antiparasitic activity against trypomastigote and amastigote form of Trypanosoma cruzi Tulahuen expressing Escherichia coli beta-galactosidase infected in mouse L929 cells; assay type: toxicity; settings: read-out: Selectivity Index
[7] = Selectivity index, ratio of CC50 for mouse RAW264.7 cells to IC50 for antiparasitic activity against Leishmania infantum amastigote expressing Escherichia coli beta-galactosidase infected in mouse RAW264.7 cells; assay type: toxicity; settings: read-out: Selectivity Index
[8] = Selectivity index, ratio of CC50 for mouse RAW264.7 cells to IC50 for antiparasitic activity against Leishmania amazonensis WHOM/00 LTB 0016 promastigote expressing Escherichia coli beta-galactosidase; assay type: toxicity; settings: read-out: Selectivity Index
[9] = tested on: Leishmania amazonensis; experiment: Antiparasitic activity against Leishmania amazonensis amastigote expressing Escherichia coli beta-galactosidase infected in mouse RAW264.7 cells assessed as reduction in parasitic growth using CPRG as substrate preincubated with compound for 24 hrs followed by substrate addition and measured after 2 to 6 hrs by Spectrophotometric analysis; assay type: functional, organism-based; settings: Leishmania amazonensis, RAW264.7; read-out: IC50
[10] = Selectivity index, ratio of CC50 for mouse RAW264.7 cells to IC50 for antiparasitic activity against Leishmania infantum MHOM/MA/67/ITMAP-263 promastigote expressing Escherichia coli beta-galactosidase; assay type: toxicity; settings: read-out: Selectivity Index
[11] = Cytotoxicity against mouse RAW264.7 cells assessed as inhibition of cell viability incubated for 48 hrs by MTT assay; assay type: toxicity, cell-based
[12] = tested on: Leishmania amazonensis; experiment: Antiparasitic activity against Leishmania amazonensis WHOM/00 LTB 0016 promastigote expressing Escherichia coli beta-galactosidase assessed as reduction in parasitic growth using CPRG as substrate preincubated with compound for 72 hrs followed by substrate addition and measured after 10 mins by Spectrophotometric analysis; assay type: functional, organism-based; settings: for pIC50: Leishmania amazonensis, WHOM/00 LTB 0016, read-out: IC50
[13] = tested on: Leishmania infantum; experiment: Antiparasitic activity against Leishmania infantum amastigote expressing Escherichia coli beta-galactosidase infected in mouse RAW264.7 cells assessed as reduction in parasitic growth using CPRG as substrate preincubated with compound for 24 hrs followed by substrate addition and measured after 2 to 6 hrs by Spectrophotometric analysis; assay type: functional, organism-based; settings: for pIC50: Leishmania infantum, RAW264.7, read-out: IC50
[14] = tested on: Cell membrane; experiment: Induction of cell membrane damage in trypomastigote form of Trypanosoma cruzi Y assessed as decrease in red fluorescence intensity incubated for 24 hrs by acridine orange staining based flow cytometric analysis; assay type: subcellular
[15] = Acute toxicity in male Swiss-Webster mouse infected with Trypanosoma cruzi Y assessed as side effects at 5 to 200 mg/kg, po measured after 48 hrs; assay type: organism-based; settings: in vivo, dose 5-200 mg/kg
[16] = Acute toxicity in female Swiss-Webster mouse infected with Trypanosoma cruzi Y assessed as side effects at 5 to 200 mg/kg, po measured after 48 hrs; assay type: organism-based; settings: in vivo, dose 5-200 mg/kg
[17] = Acute toxicity in male Swiss-Webster mouse infected with Trypanosoma cruzi Y assessed as mortality at 5 to 200 mg/kg, po measured after 48 hrs; assay type: organism-based; settings: in vivo, dose 5-200 mg/kg
[18] = Toxicity in male Swiss mouse infected with Trypanosoma cruzi Y trypomastigotes assessed as mortality at 100 mg/kg/day, po pre-infected with parasite followed by compound addition and measured after 5 to 9 days relative to control; assay type: organism-based; settings: in vivo, po, 100 mg/kg, time 5-9 day
[19] = tested on: RAW264.7; experiment: Immunomodulatory activity in mouse RAW264.7 cells assessed as decrease in TNF production at 1 to 4 times IC50 incubated for 24 to 144 hrs by flow cytometric analysis; assay type: functional, cell-based; settings: time 24-144 hrs
[20] = tested on: RAW264.7; experiment: Immunomodulatory activity in mouse RAW264.7 cells assessed as increase in IL-6 production at 1 to 4 times IC50 incubated for 24 to 144 hrs by flow cytometric analysis; assay type: functional, cell-based; settings: time 24-144 hrs
[21] = tested on: Trypanosoma cruzi; experiment: Antiparasitic activity against trypomastigote form of Trypanosoma cruzi Y assessed as appearance of ruptured cells with cytoplasmic content leakage by Electron micrographic analysis; assay type: functional, organism-based
[22] = tested on: Mitochondrial membrane; experiment: Induction of mitochondrial membrane depolarization in trypomastigote form of Trypanosoma cruzi Y at IC50 incubated for 24 hrs by Rhodamine 123 staining based flow cytometric analysis; assay type: cell membranes
[23] = tested on: Trypanosoma cruzi; experiment: Antiparasitic activity against trypomastigote form of Trypanosoma cruzi Y assessed as presence of bubbles by Electron micrographic analysis; assay type: functional, organism-based
[24] = tested on: Trypanosoma cruzi; experiment: Antiparasitic activity against trypomastigote form of Trypanosoma cruzi Y assessed as appearance of twisted bodies by Electron micrographic analysis; assay type: functional, organism-based
[25] = tested on: Trypanosoma cruzi; experiment: Antiparasitic activity against Trypanosoma cruzi Y trypomastigotes infected in male Swiss mouse assessed as reduction in parasitemia at 100 mg/kg/day, po pre-infected with parasite followed by compound addition and measured at 1 to 5 days post-infection by microscopic analysis; assay type: functional, organism-based; settings: time 1-5 day
[26] = tested on: Trypanosoma cruzi; experiment: Antiparasitic activity against trypomastigote form of Trypanosoma cruzi Y assessed as appearance of swollen cells with cytoplasmic content leakage by Electron micrographic analysis; assay type: functional, organism-based
[27] = tested on: RAW264.7; experiment: Immunomodulatory activity in mouse RAW264.7 cells assessed as decrease in IL-10 production at 1 to 4 times IC50 incubated for 24 to 144 hrs by flow cytometric analysis; assay type: functional, cell-based; settings: time 24-144 hrs
[28] = Acute toxicity in female Swiss-Webster mouse infected with Trypanosoma cruzi Y assessed as mortality at 5 to 200 mg/kg, po measured after 48 hrs; assay type: organism-based; settings: in vivo, dose 5-200 mg/kg
[29] = tested on: Trypanosoma cruzi; experiment: Antiparasitic activity against trypomastigote form of Trypanosoma cruzi Y assessed as appearance of filamentous structures scattered across the membrane by Electron micrographic analysis; assay type: functional, organism-based

SMILES | selectivity ratio [1] | pIC50 [2] | CC50 at 96 h [3] [µM] | pIC50 [4] | pIC50 [5] | selectivity ratio [6] | selectivity ratio [7] | selectivity ratio [8] | pIC50 [9] | selectivity ratio [10] | CC50 at 48 h [11] [µM] | pIC50 [12] | pIC50 [13] | Activity [24] | further results
C/C(=N\N=c1\scc(-c2cccc([N+](=O)[O-])c2)n1-c1ccccc1)c1cccnc1 | > 25.6 | 5.54 | 18.3 | 4.63 | 5.54 | 6.3 | > 20.8 | > 37 | 5.03 | > 10.3 | > 240 | 5.19 | 4.94 | – | –
COc1ccc(-c2cs/c(=N/N=C(\C)c3cccnc3)[nH]2)cc1 | 2.2 | 6.52 | 19.4 | 3.76 | 6.52 | 64.7 | 0.2 | – | 5.11 | 0.1 | 16.6 | – | 4.03 | Dose-dependent-effect | Activity [14]: Dose-dependent-effect; Activity [15]: Non-toxic; Activity [16]: Non-toxic; Activity [17]: Non-toxic; Activity [18]: Toxic; Activity [19]: inactive; Activity [20]: Active; Activity [21]: Dose-dependent-effect; Activity [22]: Active; Activity [23]: Dose-dependent-effect; IC50 [12]: Not_active; Activity [25]: inactive; Activity [26]: Dose-dependent-effect; Activity [27]: Active; Activity [28]: Non-toxic; Activity [29]: Dose-dependent-effect
C/C(=N\Nc1nc(-c2ccccc2)cs1)c1cccnc1 | 1.9 | 6.40 | 212 | 5.27 | 6.40 | 531 | 0.2 | 0.1 | 5.00 | 3.4 | 18.3 | 3.89 | 3.99 | Dose-dependent-effect | Activity [14]: Dose-dependent-effect; Activity [15]: Non-toxic; Activity [16]: Non-toxic; Activity [17]: Non-toxic; Activity [18]: Toxic; Activity [19]: Active; Activity [20]: Active; Activity [21]: Dose-dependent-effect; Activity [22]: Active; Activity [23]: Dose-dependent-effect; Activity [25]: inactive; Activity [26]: Dose-dependent-effect; Activity [27]: Active; Activity [28]: Non-toxic; Activity [29]: Dose-dependent-effect
C/C(=N\N=c1\scc(-c2ccccc2)n1-c1ccccc1)c1cccnc1 | 2.2 | 5.24 | 11.6 | 4.51 | 5.24 | 2 | 3.3 | 1.9 | 4.87 | 0.9 | 29.4 | 4.81 | 5.05 | – | –
C/C(=N\N=c1/[nH]c(-c2ccc(C)cc2)cs1)c1cccnc1 | 0.8 | 5.41 | 293 | – | 5.41 | 75.1 | – | < 0.1 | 4.48 | – | 25 | < 3.49 | – | Dose-dependent-effect | IC50 [4]: Not_active; IC50 ([13]; raw264.7): Not_active
C/C(=N\N=c1\scc(-c2ccc(C)cc2)n1-c1ccccc1)c1cccnc1 | 2.6 | 5.47 | 7.3 | 4.83 | 5.47 | 2.1 | 1.2 | 4.2 | 5.14 | 1.3 | 18.7 | 5.36 | 4.79 | – | –
C/C(=N\N=c1\scc(-c2ccc(C)cc2)n1C)c1cccnc1 | 1.2 | 5.31 | 23 | 4.27 | 5.31 | 4.7 | 2 | 0.5 | 4.51 | 0.7 | 36.2 | 4.12 | 4.74 | – | –
